# Data reported in PMC8694002 (RSC Advances, 2021).
# Where two headings read alike, the source gives them in different places.
# What was measured:
# [1] = target: T1, PTP1B (1–321) (Homo sapiens, UniProt P18031); test: PTP1B inhibition assay with DiFMUP as substrate
# T1 sequence (P18031 1-321): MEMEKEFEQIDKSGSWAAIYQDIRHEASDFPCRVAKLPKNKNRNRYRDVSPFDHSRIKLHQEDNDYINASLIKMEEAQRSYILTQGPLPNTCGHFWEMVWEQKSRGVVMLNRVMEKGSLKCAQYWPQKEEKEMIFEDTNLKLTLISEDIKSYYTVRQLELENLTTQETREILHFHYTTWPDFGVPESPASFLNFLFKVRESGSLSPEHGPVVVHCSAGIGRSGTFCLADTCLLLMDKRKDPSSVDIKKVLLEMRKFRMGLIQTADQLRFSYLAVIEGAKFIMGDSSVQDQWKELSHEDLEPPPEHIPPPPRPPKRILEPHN
# [2] = target: T2, TCPTP (13–358) (Homo sapiens, UniProt P17706); test: TCPTP inhibition assay with DiFMUP as substrate; type: biochemical; conditions: read-out: IC50 TCPTP; means ± SD of three replications
# T2 sequence (P17706 13-358): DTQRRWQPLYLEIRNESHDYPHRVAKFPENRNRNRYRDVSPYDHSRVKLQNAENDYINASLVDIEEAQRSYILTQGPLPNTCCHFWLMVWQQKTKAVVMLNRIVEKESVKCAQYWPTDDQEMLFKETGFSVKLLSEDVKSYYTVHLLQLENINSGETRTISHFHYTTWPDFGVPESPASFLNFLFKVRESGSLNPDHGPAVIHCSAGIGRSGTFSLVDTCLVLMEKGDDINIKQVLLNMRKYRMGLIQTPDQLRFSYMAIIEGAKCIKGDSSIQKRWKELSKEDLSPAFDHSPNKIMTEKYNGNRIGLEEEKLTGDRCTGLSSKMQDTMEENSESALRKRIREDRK
smiles,measurement,setting,value
O=S(=O)(O)c1ccc2cc(N=Nc3cc(S(=O)(=O)O)c4cccnc4c3O)ccc2c1 [NSC-87877],IC50,"[1]; PTP1B, Table 3, means ± SD of three replications",26.2 ± 8.58 µM
same,IC50,"[1]; read-out: IC50 PTP1B, means ± SD of three replications",26.2 ± 8.58 µM
same,IC50,[2],71.9 ± 3.87 µM
